# “Also recorded” adds a separate entry of the source. Where two headings read alike, the source gives them in different places.
# Assays:
# [1] = system: esterase; assay: Esterase mediated conversion of treprostinil compounds to treprostinil; format: in vitro ADME; details: esterase at 37° C., up to 1 hr
# Method: A set of studies was conducted to determine the conversion kinetics to treprostinil of linear treprostinil compounds versus various branched treprostinil compounds. 0.4 mM of linear C8-TR or branched treprostinil compounds 2-dimethyl-1-propanyl-TR, 3,3-dimethyl-1-butanyl-TR, 2-ethyl-1-butanyl-TR, 5-nonanyl-TR, or 3-pentanyl-TR (see below for structures) were incubated with 0.2 U esterase at 37° C. for 1 hour, and the conversion (% of total) was calculated at 0.25, 0.5, 0.75, or 1 hour incubation time. • C8-TR (i.e., the compound of Formula (A) wherein R2=
# The conversion is relative to the C8-TR compound and conversion was measured at 1 hr. post esterase incubation. • C8-TR (i.e., the compound of Formula (A) wherein R2=
# Conversion was measured at 1 hr. post esterase incubation. • 4C7-TR (i.e., the compound of Formula (A) wherein R2=
# [2] = molecular target: T1, EP2 prostanoid receptor (Homo sapiens, UniProt P43116); assay: GloSensor cAMP assay in CHO-K1 cells co-transfected with the EP2 receptor; format: cell-based
# T1 construct: host or cells: CHO-K1
# Excerpt: cAMP is a second messenger involved in signal transduction of G-protein coupled receptors (GPCRs) acting through Gα-s and Gα-i proteins. Because the treprostinil receptor is a GPCR, the assay provides an indication of whether the respective prostacyclin compound (or metabolite thereof) binds its receptor and activates the GPCR cell signaling cascade. The GloSensorTM assay harnesses a genetically modified form of firefly luciferase into which a cAMP-binding protein moiety has been inserted. Upon binding of cAMP, a conformational change is induced leading to increased light output. The EP2 prostanoid receptor was cotransfected with the GioSensorm plasmid (Promega) into CHO-K cells as follows. CHO-K cells were harvested when the monoloayer was at 50-90% confluence. First, cells were washed with 5 mL PBS. […] The media was aspirated, and the cell pellet was resuspended in 10 mL of growth media. Cell number was determined using a hemacytometer. […] For small scale transfections of up to 20 wells, the pGLoSensor-22F cAMP plasmid (Promega, Cat #: E2301) (2 apg): […] Cat #: […] P2271) ratio was diluted to a final concentration of 12.6 ng/μL (total plasmid) in Opti-MEM I reduced-serum medium (Life Technologies, Cat #: 1985062). Next, 6 μL of FuGENE HD transfection reagent (Promega, Cat #: E2311) was added to 160 μL of diluted plasmid and mixed carefully by gentle pipetting. The complex was incubated at room temperature for 0 to 10 minutes, and then 8 μL of the complex was added per well of a 96 well white assay plate (Costar, Cat #: 3917) and gently mixed without disturbing the cell monolayer. […] Following incubation, cells were treated and analyzed. For larger scale transfections, the aforementioned steps were scaled up accordingly, and cells were frozen following the last incubation. In order to prepare frozen transfected CHO-K cells, the media was aspirated from culture flasks and cells were rinsed with 5 mL PBS. […] Cell number was determined using a hemacytometer. The media was aspirated, and the cell pellet was resuspended in freezing media (Millipore, cat #: S-002-SF) at 2.5×10^4 cells/vial. Transfected cells were incubated overnight at -80° C. before transfer to liquid nitrogen for long term storage. […] SH30071.03)). […] In preparation for cAMP measurement, the cells were equilibrated with the GloSensor cAMP reagent prior to treatment. For equilibration, the medium was carefully removed from the individual well. Next, 100 μL of equilibration medium ([…] of Glosensor Reagent stock solution (Promega, Cat #: E291), 10% FBS (Hydone, Cat #: SH30071.03) and 88% CO2 independent medium (Life Technologies, Cat #: 18045088)) was added per well of the 96-well plate, and added to the side of each well. The plate was then incubated for 2 hours at room temperature. A first pre-read measurement was taken using a microplate reader (MicroLumat Plus). Plates were incubated for an additional 10 minutes at room temperature, followed by a second pre-read measurement. […] Following treatment, each plate was read every 5 minutes for the duration of the assay using a microplate reader (MicroLumat Plus). In order to determine the fold change in cAMP relative to the control, the transfection efficiency was first determined by dividing the second pre-read measurement by the average of the corresponding pre-read measurements. Next, the normalized relative light units (RLUs) of the samples were determined by dividing the plate read measurement by the transfection efficiency. The fold change in cAMP relative to the control was then determined by dividing the normalized RLU of the samples by the normalized RLU of the control. The cAMP assay was validated using free treprostinil. […] Luminescence was then measured at room temperature. […] Nebulizer Aeroneb Pro (Aerogen) was used to nebulize treprostinil derivative compositions. Desired volume of the formulation (usually 3 mL) was loaded to the mesh head of the nebulizer. […]
# [3] = physchem; details: organic solvent or mixture, thermodynamic from solid
# Method: Selected treprostinil derivatives were evaluated for the use in a metered dose inhaler (MDI).
# 5 mg of each treprostinil compound was added in a glass bottle. Specific amount of ethanol was added by weight. An MDI valve was crimped to each bottle, and HFA propellant added through the valve to the total volume of 5 mL. Compounds were allowed to dissolve for 24 hours at room temperature. The formulations were assessed visually for solubility. The goal was to estimate the minimum ethanol concentration required to solubilize each compound in propellant.
# Soluble samples presented as clear and colorless solutions. […] Non-soluble samples had white precipitate or crystals formed. Ethanol was added as a solubility aid.
# [4] = system: CHO-K1 cells; assay: CHO-K1 cell proliferation assay (Presto Blue); details: Table 9, unformulated alkyl esters, (0.195 μM-25 μM), 48 hour incubation
# Method: CHO-K1 cells were harvested when the cell monolayer was 50-90% confluent (use passage 4-11). Media was aspirated out of the flask, and cells were rinsed with 2 mL of F12 media. Next, 1 mL of pre-warmed (37° C.) 0.25% trypsin-EDTA (Life Technologies, Cat#: 25300054) was added, and cells were dislodged from the flask by tapping it on the side. Complete growth media (F12 (Life Technologies, Cat #: 31765092)+10% FBS (Hyclone, Cat #: SH30071.03)+1× Pen-Strep (Life Technologies, cat #15140-122) was then added at a volume of 10 mL. Cells were centrifuged at 250×g for 5 minutes at room temperature, and the media was aspirated. The cell pellet was resuspended in 10 mL complete growth media. Cell number was determined using a hemacytometer. Cells were then seeded at 2000 cells per well of a 96-well plate in 100 μL of complete growth media. The plate was incubated overnight at 37° C. and 5% CO2 in a water-jacketed incubator.
# The next day, 80 μL of fresh complete media was added to each well, and CHO-K1 cells were challenged with treprostinil compound and composition treatments. The working solutions were prepared at 10× concentration, and following 2 fold serial dilutions, 20 μL aliquots were added per well to arrive at a final 1× concentration. Following a 48 hour incubation at 37° C. and 5% CO2 in a water-jacketed incubator, the inhibitory effect on cell proliferation was determined. Plates were analyzed using 20 μL of Presto Blue reagent (Life Technologies, cat #: A13262) per well. The reagent was mixed, and plates were incubated for 1 hour at 37° C. and 5% CO2 in a waterjacketed incubator. Plates were read using either a CytoFluor Series 4000 (PerSeptive BioSystems) or Synergy Neo microplate reader (BioTek) with emission λ: 590 nm and excitation λ: 560 nm. […]
# CHO-K1 cells were challenged with treprostinil alkyl esters, i.e., TR compounds of Formula (A), having the following R2 groups: […]
# C2, C3, C4, C5, C6, C8, C10 or C12 straight chain alkyl, at dosages ranging from 0.098 μM to 25 μM. Following a 48 hour incubation period, the inhibitory effect on cell proliferation was determined.
# Following a 72 hour incubation period, the inhibitory effect on cell proliferation was determined. Following a 48 hour incubation period, the inhibitory effect on cell proliferation was determined. […]
# [5] = system: NR8383 cells; assay: NR8383 cell proliferation assay; format: cell-based, rat; details: Table 9, unformulated alkyl esters, (0.195 μM-25 μM), 72 hour incubation
# Method: Rat alveolar NR8383 cells were harvested when the monolayer was 50-90% confluent (use passage 5-11). Because the NR8383 cells include both adherent and non-adherent cells, media was transferred to a 50 mL Falcon tube. To obtain the cells remaining in the flask, 2 mL of plain media was added, and the remaining cells were scraped out of the 75 cm^2 flask with a cell scraper and added to the 50 mL tube. […] SH30071.03)+1×Pen-Strep (Life Technologies, cat #: 15410-122)). Cell number was determined using a hemacytometer. […] Measurements and calculations were made as described above for the CHO-K1 cells. Rat alveolar NR8383 cells were challenged with the same treprostinil derivative compositions: […]
# T1 sequence (P43116 whole entry): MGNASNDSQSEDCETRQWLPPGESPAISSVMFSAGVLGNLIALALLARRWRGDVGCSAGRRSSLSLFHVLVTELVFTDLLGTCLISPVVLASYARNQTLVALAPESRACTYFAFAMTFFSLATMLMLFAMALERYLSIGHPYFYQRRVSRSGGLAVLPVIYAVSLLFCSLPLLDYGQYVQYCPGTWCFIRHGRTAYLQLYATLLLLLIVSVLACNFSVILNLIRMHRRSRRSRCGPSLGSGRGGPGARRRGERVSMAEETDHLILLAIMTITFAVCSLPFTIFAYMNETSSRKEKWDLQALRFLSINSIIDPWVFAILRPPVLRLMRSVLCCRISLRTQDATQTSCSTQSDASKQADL
smiles,measurement,setting,value
CCCCCC[C@@H](C)OC(=O)COc1cccc2c1C[C@H]1C[C@@H](O)[C@H](CC[C@@H](O)CCCCC)[C@H]1C2 [(R)-2C8-TR],conversion rate compared with other compound,[1],no significant difference
CCCCCC[C@H](C)OC(=O)COc1cccc2c1C[C@H]1C[C@@H](O)[C@H](CC[C@@H](O)CCCCC)[C@H]1C2 [(S)-2C8-TR],conversion rate compared with other compound,[1],no significant difference
CCCCC[C@H](O)CC[C@@H]1[C@H]2Cc3cccc(OCC(=O)OC(CCC)CCC)c3C[C@H]2C[C@H]1O [Compound 4C7-TR],conversion rate compared with other compound,[1],slower conversion rate than the linear compound C-TR
CCCCC[C@H](O)CC[C@@H]1[C@H]2Cc3cccc(OCC(=O)OC(CCC)CCCC)c3C[C@H]2C[C@H]1O (stereo partly shown) [Compound 4C8-TR],conversion rate compared with other compound,[1],slower conversion rate than the linear compound C-TR; also recorded: slower conversion rate than the symmetrical compounds (4C7-TR and 5C9-TR)
"CCCCC[C@H](O)CC[C@@H]1[C@H]2Cc3cccc(OCC(=O)OC(CCCC)CCCC)c3C[C@H]2C[C@H]1O [Compound 5C9-TR, 5-nonanyl-treprostinil]",change of potency with incubation time,"[2]; cAMP dose response curves, 0.5 hr to 8 hr",increases with incubation time
same,ranking of activity,[2]; kinetic profile at 10 μM and 5 μM,C12-TR>C14-TR>5-nonanyl-TR>C16-TR
same,conversion rate compared with other compound,[1],slower conversion rate than the linear compound C-TR
same,conversion rate compared with other compound,[1]; listed as 5-nonanyl-TR,slower conversion rate than linear C8-TR
same,solubility at 24 h,[3]; Solubility in HFA-134a with added ethanol,< 1000 µg/mL
same,solubility at 24 h,[3]; Solubility in HFA-227 with added ethanol,> 1000 µg/mL
"CCCCC[C@H](O)CC[C@@H]1[C@H]2Cc3cccc(OCC(=O)OCC)c3C[C@H]2C[C@H]1O [Compound C2-TR, treprostinil ethyl ester]",EC50,"[2]; 4.5 hr incubation time, read-out: EC50 (μM) 4.5 hr",1.84 µM
same,EC50,"[2]; 6.0 hr incubation time, read-out: EC50 (μM) 6.0 hr",1.68 µM
same,EC50,"[2]; 8.0 hr incubation time, read-out: EC50 (μM) 8.0 hr",1.65 µM
same,EC50,"[2]; EC50 (μM) 0.5 hr, 0.5 hr incubation time",2.43 µM
same,EC50,"[2]; EC50 (μM) 1.0 hr, 1.0 hr incubation time",2.27 µM
same,EC50,"[2]; EC50 (μM) 2.0 hr, 2.0 hr incubation time",1.75 µM
same,EC50,"[2]; EC50 (μM) 3.0 hr, 3.0 hr incubation time",1.81 µM
same,EC50,"[2]; EC50 (μM) 4.0 hr, 4.0 hr incubation time",1.88 µM
same,EC50,"[2]; EC50 (μM) 5.0 hr, 5.0 hr incubation time",1.91 µM
same,EC50,"[2]; EC50 (μM) 7.0 hr, 7.0 hr incubation time",1.71 µM
same,"Effect on cell proliferation, CHO-K1 Cells: detectable cell inhibition",[4],No detectable cell inhibition
same,"Effect on cell proliferation, NR8383 Cells: detectable cell inhibition",[5],No detectable cell inhibition
CCCCC[C@H](O)CC[C@@H]1[C@H]2Cc3cccc(OCC(=O)OCCC)c3C[C@H]2C[C@H]1O [Compound C3-TR],"Effect on cell proliferation, CHO-K1 Cells: detectable cell inhibition",[4],No detectable cell inhibition
same,"Effect on cell proliferation, NR8383 Cells: detectable cell inhibition",[5],No detectable cell inhibition
CCCCC[C@H](O)CC[C@@H]1[C@H]2Cc3cccc(OCC(=O)OCCCC)c3C[C@H]2C[C@H]1O [Compound C4-TR],"Effect on cell proliferation, CHO-K1 Cells: detectable cell inhibition",[4],No detectable cell inhibition
same,"Effect on cell proliferation, NR8383 Cells: detectable cell inhibition",[5],No detectable cell inhibition
CCCCCCOC(=O)COc1cccc2c1C[C@H]1C[C@@H](O)[C@H](CC[C@@H](O)CCCCC)[C@H]1C2 [Compound C6-TR],"Effect on cell proliferation, CHO-K1 Cells: detectable cell inhibition",[4],No detectable cell inhibition
same,"Effect on cell proliferation, NR8383 Cells: detectable cell inhibition",[5],No detectable cell inhibition

# From US20160318844A1, “PROSTACYCLIN COMPOUNDS, COMPOSITIONS AND METHODS OF USE THEREOF” (Insmed Incorporated, priority 2015, published 2016)
